Tested on: CHK2 phosphorylation (phospho-Thr68) in HCT116 cells
Test: Cellular pCHK2 assay, bleomycin-induced phosphorylation of CHK2 (phospho-Thr68), immunofluorescence high content
Format: cell-based
Settings: Homo sapiens, HCT-116; HCT116 cells, 10 μM bleomycin, 4 h; read-out: IC50 (pCHK2)
Source text: For the identification of substances which inhibit the phosphorylation of the protein kinase CHK2 at the amino acid threonine 68, an immunofluorescence-based “high content” analysis assay was used in HCT116 cells.
In vitro cell-based immunofluorescence assay for the identification of inhibitors of bleomycin-induced phosphorylation of CHK2 (phospho-Thr68) in the human colon carcinoma cell line HCT116:
HCT116 cells are sown out in a defined cell density in 384-well plates in culture medium (DMEM high glucose, 2 mM GlutaMax, 1 mM Na pyruvate, 10% FCS) and incubated overnight at 37° C. and 10% of CO2. On the following day, the test substances are added in a defined concentration range (1 nM to 30 μM) in combination with 10 μM bleomycin, where the concentration of the solvent DMSO is kept constant at 0.5%. After incubation for four hours at 37° C. and 10% of CO2, the cells are fixed (5 min, 4% formaldehyde in PBS), permeabilised (10 min, 0.2% Triton X-100 in PBS) and, after blocking of nonspecific binding sites (10% goat serum, 1% BSA in PBS), incubated overnight at 4° C. with a specific anti-pCHK2 antibody (cell signalling #2661). pCHK2 (Thr68) is determined using an Alexa488-labelled secondary anti-rabbit IgG antibody. Parallel staining of DNA with propidium iodide enables determination of the cell count. The pCHK2 signal is detected using a high-content imager (Molecular Devices IMX Ultra) and automatic image analysis using the MetaXpress software belonging to the instrument. The number of cell nuclei which have a pCHK2 signal above a defined background is determined.

`COc1cnc(-n2c(=O)n(C)c3cnc4cc(OC)c(-c5cn(C)nn5)cc4c32)c(F)c1` [compound 133, 1-(3-Fluoro-5-methoxy-pyridin-2-yl)-7-methoxy-3-methyl-8-(1-methyl-1H-1,2,3-triazol-4-yl)-1,3-dihydroimidazo[4,5-c] quinolin-2-one] and `C=CCOc1cnc(-n2c(=O)n(C)c3cnc4cc(OC)c(-c5cnn(C)c5)cc4c32)c(F)c1` [compound 204, 1-(5-Allyloxy-3-fluoropyridin-2-yl)-7-methoxy-3-methyl-8-(1-methyl-1H-pyrazol-4-yl)-1,3-dihydroimidazo[4,5-c]-quinolin-2-one] fall in the same range of IC50: 200 to 1000 nM for the first, 200 to 1000 nM for the second.

`COc1cc2ncc3c(c2cc1-c1cnn[nH]1)n(-c1c(F)cncc1OC)c(=O)n3C` [compound 134, 1-(3-Fluoro-5-methoxy-pyridin-4-yl)-7-methoxy-3-methyl-8-(3H-1,2,3-triazol-4-yl)-1,3-dihydroimidazo-[4,5-c]quinolin-2-one] and `COc1cc2ncc3c(c2cc1-c1cnn(C(F)F)c1)n(-c1c(F)cncc1OC)c(=O)n3C` [compound 143, 8-(1-Difluoromethyl-1H-pyrazol-4-yl)-1-(3-fluoro-5-methoxypyridin-4-yl)-7-methoxy-3-methyl-1,3-dihydroimidazo[4,5-c] quinolin-2-one] fall in the same range of IC50: 200 to 1000 nM for the first, 200 to 1000 nM for the second.

First: CCn1cc(-n2c(=O)n(C)c3cnc4cc(OC)c(-c5cn(C)nc5C)cc4c32)c(C)n1 [compound 135, 8-(1,3-Dimethyl-1H-pyrazol-4-yl)-1-(1-ethyl-3-methyl-1H-pyrazol-4-yl)-7-methoxy-3-methyl-1,3-dihydro-imidazo[4,5-c]quinolin-2-one]
Second: COc1cc2ncc3c(c2cc1-c1n[nH]cc1C)n(-c1cn(C)nc1C)c(=O)n3C [compound 151, 1-(1,3-Dimethyl-1H-pyrazol-4-yl)-7-methoxy-3-methyl-8-(4-methyl-1H-pyrazol-3-yl)-1,3-dihydroimidazo[4,5-c] quinolin-2-one]
The IC50 of the first is higher: 200 to 1000 nM for the first, < 200 nM for the second. The second is the more potent here.

`CNC(=O)c1cnc(-n2c(=O)n(C)c3cnc4cc(OC)c(-c5cn(C)nc5C)cc4c32)c(F)c1` [compound 139, 6-[8-(1,3-Dimethyl-1H-pyrazol-4-yl)-7-methoxy-3-methyl-2-oxo-2,3-dihydro-imidazo[4,5-c]quinolin-1-yl]-5-fluoro-N-methyl-nicotinamid] and `COc1cc2ncc3c(c2cc1-c1cn(C)nc1C)n(-c1ncc(OCS(C)(=O)=O)cc1F)c(=O)n3C` [compound 203, 8-(1,3-Dimethyl-1H-pyrazol-4-yl)-1-(3-fluoro-5-methyl-sulfonylmethoxypyridin-2-yl)-7-methoxy-3-methyl-1,3-dihydroimidazo[4,5-c]-quinolin-2-one] fall in the same range of IC50: 200 to 1000 nM for the first, 200 to 1000 nM for the second.

Compared with `CCn1cc(-c2cc3c(cc2OC)ncc2c3n(-c3c(F)cncc3OC)c(=O)n2C)c(C)n1` [compound 142, 8-(1-Ethyl-3-methyl-1H-pyrazol-4-yl)-1-(3-fluoro-5-methoxypyridin-4-yl)-7-methoxy-3-methyl-1,3-dihydroimidazo[4,5-c] quinolin-2-one], `[2H]C([2H])([2H])Oc1cncc(F)c1-n1c(=O)n(C)c2cnc3cc(OC)c(-c4cn(C)nc4C)cc3c21` [compound 150, 8-(1,3-Dimethylpyrazol-4-yl)-1-[3-fluoro-5-(trideuterio-methoxy)-4-pyridyl]-7-methoxy-3-methyl-imidazo-[4,5-c]quinolin-2-one] is lower in IC50: 200 to 1000 nM for the first, < 200 nM for the second.

`COc1cnc(-n2c(=O)n(C)c3cnc4cc(OC)c(-c5ccc6nc(C)[nH]c6c5)cc4c32)c(F)c1` [compound 144, 1-(3-Fluoro-5-methoxy-pyridin-2-yl)-7-methoxy-3-methyl-8-(2-methyl-3H-benzoimidazol-5-yl)-1,3-dihydroimidazo[4,5-c]-quinolin-2-one] and `COc1cnc(-n2c(=O)n(C)c3cnc4cc(OC)c(-c5ccc6nc[nH]c6c5)cc4c32)c(F)c1` [compound 153, 8-(3H-Benzimidazol-5-yl)-1-(3-fluoro-5-methoxypyridin-2-yl)-7-methoxy-3-methyl-1,3-dihydroimidazo[4,5-c]-quinolin-2-one] fall in the same range of IC50: 200 to 1000 nM for the first, 200 to 1000 nM for the second.

`COc1cc2ncc3c(c2cc1-c1cnn(C)c1)n(-c1c(F)cncc1OC(F)F)c(=O)n3C` [compound 146, 1-(3-Difluoromethoxy-5-fluoropyridin-4-yl)-7-methoxy-3-methyl-8-(1-methyl-1H-pyrazol-4-yl)-1,3-dihydroimidazo[4,5-c]-quinolin-2-one] and `COc1cc2ncc3c(c2cc1-c1cnn(C)c1)n(-c1c(F)cncc1OCF)c(=O)n3C` [compound 148] cannot be ordered by IC50: < 200 nM for the first, < 200 nM for the second.

First: COc1cc2ncc3c(c2cc1-c1cnc2nc(C)[nH]c2c1)n(-c1c(F)cncc1OC)c(=O)n3C [compound 152, 1-(3-Fluoro-5-methoxy-pyridin-4-yl)-7-methoxy-3-methyl-8-(2-methyl-1H-imidazo[4,5-b]pyridin-6-yl)-1,3-dihydroimidazo[4,5-c]-quinolin-2-one]
Second: COc1cc2ncc3c(c2cc1-c1cnc2nc(C)[nH]c2c1)n(-c1cn(C)nc1C)c(=O)n3C [compound 154, 1-(1,3-Dimethyl-1H-pyrazol-4-yl)-7-methoxy-3-methyl-8-(2-methyl-1H-imidazo[4,5-b]pyridin-6-yl)-1,3-dihydro-imidazo[4,5-c]quinolin-2-one]
The IC50 of the first is lower: < 200 nM for the first, 1000 to 2000 nM for the second. The first is the more potent here.

`CCc1cnccc1-n1c(=O)n(C)c2cnc3cc(OC)c(-c4cnn(C)c4)cc3c21` [compound 156, 1-(3-Ethylpyridin-4-yl)-7-methoxy-3-methyl-8-(1-methyl-1H-pyrazol-4-yl)-1,3-dihydroimidazo[4,5-c] quinolin-2-one] and `COc1cc2ncc3c(c2cc1-c1cnn(C)c1)n(-c1ccncc1C1CC1)c(=O)n3C` [compound 200, 1-(3-Cyclopropylpyridin-4-yl)-7-methoxy-3-methyl-8-(1-methyl-1H-pyrazol-4-yl)-1,3-dihydroimidazo[4,5-c] quinolin-2-one] fall in the same range of IC50: 200 to 1000 nM for the first, 200 to 1000 nM for the second.

`COc1cc2ncc3c(c2cc1-c1cnn(C)n1)n(-c1ncccc1F)c(=O)n3C` [compound 158, 1-(3-Fluoropyridin-2-yl)-7-methoxy-3-methyl-8-(2-methyl-2H-1,2,3-triazol-4-yl)-1,3-dihydroimidazo-[4,5-c]quinolin-2-one] and `CNCCOc1cnc(-n2c(=O)n(C)c3cnc4cc(OC)c(-c5cnn(C)c5)cc4c32)c(F)c1` [compound 206] fall in the same range of IC50: 200 to 1000 nM for the first, 200 to 1000 nM for the second.

Compared with `COc1cc2ncc3c(c2cc1-c1cnn(C)c1)n(-c1c(F)cncc1C1CC1)c(=O)n3C` [compound 202, 1-(3-Cyclopropyl-5-fluoro-pyridin-4-yl)-7-methoxy-3-methyl-8-(1-methyl-1H-pyrazol-4-yl)-1,3-dihydro-imidazo[4,5-c]quinolin-2-one], `COc1cc2ncc3c(c2cc1-c1cnn(C2CNC2)c1)n(-c1c(F)cncc1OC)c(=O)n3C` [compound 208, 8-[1-(Azetidin-3-yl)-1H-pyrazol-4-yl]-1-(3-fluoro-5-methoxypyridin-4-yl)-7-methoxy-3-methyl-1H,2H,3H-imidazo[4,5-c]-quinolin-2-one] is higher in IC50: 200 to 1000 nM for the first, 1000 to 2000 nM for the second.

Compound `COc1cc2ncc3c(c2cc1-c1cnn(C)c1)n(-c1ncc(OCC2CN(C)C2)cc1F)c(=O)n3C` [compound 207, 1-[3-Fluoro-5-(1-methyl-azetidin-3-ylmethoxy)-pyridin-2-yl]-7-methoxy-3-methyl-8-(1-methyl-1H-pyrazol-4-yl)-1,3-dihydro-imidazo[4,5-c]quinolin-2-one] has an IC50 of 200 to 1000 nM.

Biological target: mTOR (human) (Homo sapiens (Human), UniProt P42345)
Test: mTOR (human) radiometric kinase assay
Format: biochemical
Settings: IC50 (ATM) at least 2000 times higher compared with IC50 (mTOR)
Description: mTOR (human) was incubated with 50 mM HEPES pH 7.5, 1 mM EGTA, 0.01% Tween 20, 2 mg/ml of the substrate, 3 mM MnCl2 and [γ-^33P-ATP] (specific activity approximately 500 cpm/pmol, concentration as necessary). The reaction was initiated by addition of MgATP solution. After incubation at room temperature for 40 minutes, the reaction was stopped by addition of 3% phosphoric acid. 10 μl of the reaction solution were then transferred dropwise onto a P30 filtermat and washed three times for 5 min in 75 mM phosphoric acid and once in methanol, dried and evaluated by means of liquid scintillation counting.

`COc1cc2ncc3c(c2cc1-c1cnn(C)c1)n(-c1ncc(OC(F)F)cc1F)c(=O)n3C` [compound 114, 1-(5-Difluoromethoxy-3-fluoropyridin-2-yl)-7-methoxy-3-methyl-8-(1-methyl-1H-pyrazol-4-yl)-1,3-dihydroimidazo[4,5-c]-quinolin-2-one] was tested, and the “ratio IC50 (ATM):IC50(mTOR), selectivity with respect to mTOR” value (“ratio IC50 (ATM):IC50(mTOR), selectivity” for short) was “at least 2000 times”.
`COc1cc2ncc3c(c2cc1-c1cnn(C)c1)n(-c1cc2[nH]ccc2cn1)c(=O)n3C` [compound 120, 7-Methoxy-3-methyl-8-(1-methyl-1H-pyrazol-4-yl)-1-(1H-pyrrolo[3,2-c]pyridin-6-yl)-1,3-dihydroimidazo-[4,5-c]quinolin-2-one] was tested, and the “ratio IC50 (ATM):IC50(mTOR), selectivity” value was “at least 2000 times”.
For `COc1cc2ncc3c(c2cc1-c1cc[nH]n1)n(-c1cn(C)nc1C)c(=O)n3C` [compound 121, 1-(1,3-Dimethyl-1H-pyrazol-4-yl)-7-methoxy-3-methyl-8-(1H-pyrazol-3-yl)-1,3-dihydroimidazo[4,5-c]-quinolin-2-one], the “ratio IC50 (ATM):IC50(mTOR), selectivity” value was “at least 2000 times”.
